Key:
Type in all cases: in vivo, guinea pig
[1] = system: hearing loss induced by PTZ in guinea pigs; test: ABR (auditory) threshold in PTZ-induced epilepsy; conditions: vinpocetine 2 mg/kg or vehicle 4 h before PTZ
Procedure: (§1) Experiments were performed in pigmented adult male guinea pigs initially weighing 349±38 g. ABRs recordings were used to evaluate the hearing status of each animal and EEG recordings to evaluate changes in cortical excitability. The ABR and EEG recordings were obtained following a method that we have previously reported (Nekrassov and Sitges, 2003). The Institutional Animal Use and Care Committee approved all experimental procedures.
(§2) Three types of recordings were performed in the anaesthetized animals, namely the ABR recordings elicited by a stimulus of high intensity (100 dB), the ABR recordings for determination of the auditory threshold and the EEG recordings.
(§3) Determination of ABR thresholds. ABR recordings elicited by stimuli of progressively lower intensity (in dB) were used for determining the hearing threshold. Threshold is defined as the lowest stimulus intensity (in dB) at which the P3 wave of the ABR could still be recorded in three consecutive trials.
(§4) Student's t-test was used for the evaluation of the differences between results obtained before and at the specified times after the injection of the convulsing agents. The criterion for statistical significance for all measures was P≦0.05. All data are expressed as means±standard error of the mean. In figures and tables the symbol * is used for indicating statistic significant differences.
(§5) Eight male guinea pigs were entered into this study. PTZ was dissolved in saline and vinpocetine in a saline acidified (with HCl) adjusted to pH 4 (with NaOH). Four hours after injecting guinea pigs with vehicle (acidified saline used to dissolve vinpocetine) the animals were anaesthetized and a first set of ABR and EEG recordings was taken before the injection (i.p) of the convulsing agent, PTZ. The animals were injected with PTZ (100 mg/kg) and about 2 min after injecting PTZ (ictal period) the EEG recording was taken. Then the other series of ABR and EEG recordings were taken at specific times within the post-ictal period. After two weeks the same series of recordings was taken but instead vehicle the animals were injected with vinpocetine (2 mg/kg) 4 hours before the injection of PTZ.

[2] = system: epilepsy induced by PTZ in guinea pigs; test: ABR wave parameters (amplitude, latency) in PTZ-induced epilepsy; conditions: 100 dB, vinpocetine 2 mg/kg or vehicle 4 h before PTZ
Procedure: as §1, §2
(§6) Determination of ABR wave parameters. The latency and amplitude of each wave component of the ABR elicited by a stimulus of 100 dB with pure tone frequencies of 4 and 8 kHz was measured in all the ABR recordings obtained under the different experimental conditions at the specified times. The latency of each ABR wave (in ms) refers to the time interval between the onset of the auditory stimulus and the positive peak of the wave. The onset of the stimulus is indicated by the vertical arrow at the bottom of the recordings on FIG. 1. The peak amplitude (in μV) of each wave of the ABR is the difference between the positive peak of the wave and the reference baseline (trace between the stimulus and the appearance of the first ABR wave on FIG. 1).
as §4, §5

[3] = system: epileptic cortical activity induced by PTZ in guinea pigs; test: EEG recordings of cortical activity in PTZ-induced epilepsy; conditions: PTZ 100 mg/kg i.p.
Procedure: as §1, §2, §5
Vinpocetine inhibits all the changes induced by PTZ on the EEG. […] This dramatic change on the cortical activity induced by PTZ in the anaesthetized animals during convulsions is followed by a typical pattern of cortical activity characterized by rhythmic spike bursts of high amplitude. The duration time of this typical pattern of cortical activity, that is not accompanied by convulsions is referred as the post-ictal period.

[4] = system: epilepsy induced by 4-AP in guinea pigs; test: ABR wave parameters (amplitude, latency) in 4-AP-induced epilepsy; conditions: 100 dB, vinpocetine 2 mg/kg or vehicle 1 h before 4-AP
Procedure: as §1, §2, §6, §4
(§7) Five guinea pigs were entered into the study. One hour after injecting guinea pigs with vehicle (acidified saline used to dissolve vinpocetine) the animals were anaesthetized and a first set of ABR and EEG recordings was taken before the injection (i.p) of the convulsing agent, 4-AP. The animals were injected with 4-AP (2 mg/kg) and about 20 min after injecting 4-AP (ictal period) the EEG recording was taken. Then the other series of ABR and EEG recordings were taken at specific times within the post-ictal period. After two weeks the same series of recordings were repeated but instead vehicle the animals were injected with vinpocetine (2 mg/kg) 1 hour before the injection of 4-AP.

[5] = system: hearing loss induced by 4-AP in guinea pigs; test: ABR (auditory) threshold in 4-AP-induced epilepsy; conditions: vinpocetine 2 mg/kg or vehicle 1 h before 4-AP
Procedure: as §1, §2, §3, §4, §7

[6] = system: epileptic cortical activity induced by 4-AP in guinea pigs; test: EEG recordings of cortical activity in 4-AP-induced epilepsy; conditions: 4-AP 2 mg/kg i.p.
Procedure: as §1, §2, §7
Vinpocetine inhibits all the changes induced by 4-AP on the EEG. […] This change on the cortical activity elicited by 4-AP for the ictal period is followed by the post-ictal period characterized by isolated spikes of higher amplitude that appear on the EEG about one hour after the injection of 4-AP. […] The top traces of FIG. 6 show the characteristic EEG recordings taken before the injection of 4-AP in the animals pre-injected with vehicle (a) and in the animals pre-injected with vinpocetine (b). The changes induced by 4-AP on for the ictal period are shown in the second trace on FIG. 6a. In the vinpocetine treated animals 4-AP was unable to induce the ictal activity (second trace on FIG. 6b).

[7] = 4 kHz, 30 min after PTZ 100 mg/kg i.p.
[8] = 4 kHz, 50 min after PTZ 100 mg/kg i.p.
[9] = 8 kHz, 30 min after PTZ 100 mg/kg i.p.
[10] = 8 kHz, 50 min after PTZ 100 mg/kg i.p.
[11] = animals pre-injected with vehicle
[12] = 4 kHz, 30 min after 4-AP 2 mg/kg i.p.
[13] = 4 kHz, 60 min after 4-AP 2 mg/kg i.p.
[14] = 8 kHz, 30 min after 4-AP 2 mg/kg i.p.
[15] = 8 kHz, 60 min after 4-AP 2 mg/kg i.p.

Question: What does the source list for C1CCc2nnnn2CC1 [PTZ, pentylenetetrazole]?
Answer: auditory threshold [1, 7]: 28 ± 2.0 * dB; auditory threshold [1, 8]: 29 ± 1.0 * dB; auditory threshold [1, 9]: 17 ± 2.0 * dB; auditory threshold [1, 10]: 21 ± 2.4 * dB; P4 wave peak amplitude of the ABR ([2]; 4 kHz, 10 min after PTZ 100 mg/kg i.p.): 1.70 ± 0.5 * μV; P4 wave peak amplitude of the ABR ([2]; 4 kHz, 20 min after PTZ 100 mg/kg i.p.): 2.12 ± 0.4 * μV; P4 wave peak amplitude of the ABR [2, 7]: 1.84 ± 0.4 * μV; P4 wave peak amplitude of the ABR [2, 8]: 2.11 ± 0.3 * μV; P4 wave peak amplitude of the ABR ([2]; 8 kHz, 10 min after PTZ 100 mg/kg i.p.): 2.07 ± 0.4 * μV; P4 wave peak amplitude of the ABR ([2]; 8 kHz, 20 min after PTZ 100 mg/kg i.p.): 1.99 ± 0.3 * μV; P4 wave peak amplitude of the ABR [2, 9]: 1.92 ± 0.3 * μV; P4 wave peak amplitude of the ABR [2, 10]: 1.51 ± 0.5 * μV; onset of seizure activity in the EEG after injection [3]: within the two first min; seizure induction in anaesthetized animals [3, 11]: developed generalized seizures

Question: Which “latency of the P4 wave of the ABR” value [4, 12] does the source give for Nc1ccncc1 [4-AP, 4-aminopyridine] here?
Answer: 3.78 ± 0.09 * ms

Question: And the “latency of the P4 wave of the ABR” value [4, 13]?
Answer: 3.78 ± 0.09 * ms

Question: What about the “latency of the P4 wave of the ABR” value ([4]; 4 kHz, 80 min after 4-AP 2 mg/kg i.p.) of the same compound?
Answer: 3.78 ± 0.09 * ms

Question: What about the “latency of the P4 wave of the ABR” value ([4]; 4 kHz, 100 min after 4-AP 2 mg/kg i.p.) of the same compound?
Answer: 3.75 ± 0.10 * ms

Question: And the “latency of the P4 wave of the ABR” value [4, 14]?
Answer: 3.51 ± 0.13 ms

Question: And the “latency of the P4 wave of the ABR” value [4, 15]?
Answer: 3.80 ± 0.10 * ms

Question: What about the “latency of the P4 wave of the ABR” value ([4]; 8 kHz, 80 min after 4-AP 2 mg/kg i.p.) of the same compound?
Answer: 3.80 ± 0.10 * ms

Question: And the “latency of the P4 wave of the ABR” value ([4]; 8 kHz, 100 min after 4-AP 2 mg/kg i.p.)?
Answer: 3.83 ± 0.12 * ms

Question: What about the auditory threshold [5, 12] of the same compound?
Answer: 20 ± 2.0 * dB

Question: And the auditory threshold [5, 13]?
Answer: 30 ± 3.5 * dB

Question: What about the auditory threshold [5, 14] of the same compound?
Answer: 10.0 ± 2.0 * dB

Question: What about the auditory threshold [5, 15] of the same compound?
Answer: 23.8 ± 6.3 * dB

Question: And the “time of appearance of seizure (spike-sharp wave) activity in the EEG after injection” value [6]?
Answer: about 20 min

Question: What about the “seizure induction in anaesthetized animals” value [6, 11] of the same compound?
Answer: developed generalized seizures
